Reference: patent publication US20250064941A1, “SIGLEC LIGANDS, CONJUGATES, AND METHODS OF USE THEREOF” (Osprey Biopharmaceuticals, Inc., priority 2023, published 2025)

Assays:
cynomolgus Siglec-2/CD22 = cynomolgus Siglec-2/CD22 (Macaca fascicularis, UniProt A0A2K5WCZ6); assay: biochemical; type: binding; settings: SPR, steady-state analysis; read-out: Affinity cyno CD22
Outline: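 SPR with desialylated (SialoExo, 4 h, 37° C.) cynomolgus CD22 amine-coupled to a CM5 chip. Running buffer 10 mM HEPES, 150 mM NaCl, 0.05% Tween-20, pH 7.5, 1% DMSO, with solvent correction; 120 s dissociation. Affinities from steady-state analysis.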

[1] = target: T1, human Siglec-2/CD22 protein (Homo sapiens, UniProt P20273); assay: SPR binding affinity to human CD22; settings: steady-state analysis
T1 construct: purchased Acro Biosystems SI2-H82E3
T1 sequence (P20273 20-847): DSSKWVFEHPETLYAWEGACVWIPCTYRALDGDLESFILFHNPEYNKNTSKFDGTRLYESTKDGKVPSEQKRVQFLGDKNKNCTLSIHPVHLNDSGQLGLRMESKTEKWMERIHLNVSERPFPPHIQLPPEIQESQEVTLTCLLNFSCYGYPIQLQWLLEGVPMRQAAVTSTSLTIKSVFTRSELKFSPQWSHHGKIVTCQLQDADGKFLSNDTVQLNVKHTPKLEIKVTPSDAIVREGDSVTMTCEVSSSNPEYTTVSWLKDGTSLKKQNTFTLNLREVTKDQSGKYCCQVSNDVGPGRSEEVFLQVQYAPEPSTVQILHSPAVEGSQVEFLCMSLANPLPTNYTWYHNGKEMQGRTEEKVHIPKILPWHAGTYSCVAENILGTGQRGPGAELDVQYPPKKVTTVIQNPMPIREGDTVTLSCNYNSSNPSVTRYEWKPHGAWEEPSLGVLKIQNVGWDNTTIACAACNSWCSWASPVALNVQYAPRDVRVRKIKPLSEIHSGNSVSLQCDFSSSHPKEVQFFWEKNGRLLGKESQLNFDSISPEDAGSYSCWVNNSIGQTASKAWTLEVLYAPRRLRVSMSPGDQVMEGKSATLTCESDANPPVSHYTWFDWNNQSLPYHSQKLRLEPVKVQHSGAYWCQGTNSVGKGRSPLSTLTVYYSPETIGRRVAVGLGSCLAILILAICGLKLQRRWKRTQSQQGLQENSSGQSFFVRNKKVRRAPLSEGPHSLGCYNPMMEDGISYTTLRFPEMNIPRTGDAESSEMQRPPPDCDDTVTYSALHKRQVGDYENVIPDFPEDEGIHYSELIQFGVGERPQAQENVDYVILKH
Outline: (§1)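 Biotinylated CD22 desialylated with SialoExo (4 h, 37° C) before capture on streptavidin chip. Running buffer 10 mM HEPES, 150 mM NaCl, 0.05% Tween-20, pH 7.5, 1% DMSO, with DMSO solvent correction; 120 s dissociation. Compound affinities from steady-state analysis.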

[2] = target: T2, mouse Siglec-2-Fc-Avi (CD22) (Mus musculus, UniProt P35329); assay: SPR binding affinity to mouse CD22; settings: steady-state analysis
T2 construct: made in house
T2 sequence (P35329 22-708 limits assumed): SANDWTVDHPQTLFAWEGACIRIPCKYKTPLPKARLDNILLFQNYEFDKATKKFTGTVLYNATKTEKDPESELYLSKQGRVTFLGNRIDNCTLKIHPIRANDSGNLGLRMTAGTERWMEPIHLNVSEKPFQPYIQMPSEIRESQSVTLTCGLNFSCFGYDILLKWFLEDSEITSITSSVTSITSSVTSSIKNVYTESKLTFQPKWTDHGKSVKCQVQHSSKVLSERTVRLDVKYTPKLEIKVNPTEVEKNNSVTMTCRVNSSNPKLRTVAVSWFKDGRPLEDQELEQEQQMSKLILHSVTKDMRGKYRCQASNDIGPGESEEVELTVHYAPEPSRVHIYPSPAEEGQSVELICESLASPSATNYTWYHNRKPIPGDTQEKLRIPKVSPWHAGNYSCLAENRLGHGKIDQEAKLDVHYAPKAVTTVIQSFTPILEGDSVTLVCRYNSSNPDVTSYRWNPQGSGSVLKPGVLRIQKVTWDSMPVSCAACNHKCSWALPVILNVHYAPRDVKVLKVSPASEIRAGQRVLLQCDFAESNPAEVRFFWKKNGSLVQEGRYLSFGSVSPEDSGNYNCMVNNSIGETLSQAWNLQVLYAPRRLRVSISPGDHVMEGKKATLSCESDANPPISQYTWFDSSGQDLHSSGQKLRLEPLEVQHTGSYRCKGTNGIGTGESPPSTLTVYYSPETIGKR
Outline: as §1

Chain of cynomolgus Siglec-2/CD22 (A0A2K5WCZ6 entry or part of it): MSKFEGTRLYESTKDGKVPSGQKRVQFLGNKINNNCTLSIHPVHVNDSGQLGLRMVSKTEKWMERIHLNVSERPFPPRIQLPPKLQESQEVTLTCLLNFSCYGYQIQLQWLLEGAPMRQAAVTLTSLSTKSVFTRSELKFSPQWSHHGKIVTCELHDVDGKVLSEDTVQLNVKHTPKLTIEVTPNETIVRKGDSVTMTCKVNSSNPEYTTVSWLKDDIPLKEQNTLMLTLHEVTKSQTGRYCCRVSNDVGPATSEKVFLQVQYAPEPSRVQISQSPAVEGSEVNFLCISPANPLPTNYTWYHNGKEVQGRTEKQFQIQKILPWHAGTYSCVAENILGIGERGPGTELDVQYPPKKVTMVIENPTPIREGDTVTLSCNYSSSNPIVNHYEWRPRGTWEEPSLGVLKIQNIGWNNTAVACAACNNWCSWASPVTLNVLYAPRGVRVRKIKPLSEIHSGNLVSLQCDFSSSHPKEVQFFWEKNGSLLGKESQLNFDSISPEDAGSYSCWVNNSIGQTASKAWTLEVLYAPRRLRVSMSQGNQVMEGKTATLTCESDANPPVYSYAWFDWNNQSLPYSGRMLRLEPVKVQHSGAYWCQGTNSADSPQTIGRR

SMILES	Kd (cynomolgus Siglec-2/CD22)	Kd [1]	Kd [2]
C#CCCOc1ccc(CO[C@]2(C(=O)O)C[C@H](O)[C@@H](NC(=O)CO)[C@H]([C@H](O)[C@H](O)CNC(=O)Cc3cccc(-c4ccccc4O)c3)O2)cc1 [Compound 46, (2R,4S,5R,6R)-2-((4-(but-3-yn-1-yloxy)benzyl)oxy)-6-((1R,2R)-1,2-dihydroxy-3-(2-(2′-hydroxy-[1,1′-biphenyl]-3-yl)acetamido)propyl)-4-hydroxy-5-(2-hydroxyacetamido)tetrahydro-2H-pyran-2-carboxylic acid]	1 to 10 µM	< 1 µM	1 to 10 µM
C#CCOCCCCCCO[C@]1(C(=O)O)C[C@H](O)[C@@H](NC(N)=O)[C@H]([C@H](O)[C@H](O)CNC(=O)Cc2ccc(Cl)cc2)O1 [Cpd. 86, (2R,4S,5R,6R)-6-((1R,2R)-3-(2-(4-chlorophenyl)acetamido)-1,2-dihydroxypropyl)-4-hydroxy-2-((6-(prop-2-yn-1-yloxy)hexyl)oxy)-5-ureidotetrahydro-2H-pyran-2-carboxylic acid]	1 to 10 µM	< 1 µM	< 1 µM
C#CCOCCOCCNc1c(NCCCCCCO[C@]2(C(=O)O)C[C@H](O)[C@@H](NC(=O)CO)[C@H]([C@H](O)[C@H](O)CNC(=O)c3ccc(F)cc3)O2)c(=O)c1=O [Compound 232, (2R,4S,5R,6R)-2-((6-((3,4-dioxo-2-((2-(2-(prop-2-yn-1-yloxy)ethoxy)ethyl)amino)cyclobut-1-en-1-yl)amino)hexyl)oxy)-6-((1R,2R)-3-(4-fluorobenzamido)-1,2-dihydroxypropyl)-4-hydroxy-5-(2-hydroxyacetamido)tetrahydro-2H-pyran-2-carboxylic acid]	1 to 10 µM	1 to 10 µM	> 10 µM
C#CCOCCCCCCO[C@]1(C(=O)O)C[C@H](O)[C@@H](NC(=O)Cc2ccccc2)[C@H]([C@H](O)[C@H](O)CNC(=O)Cc2ccc(Cl)cc2)O1 [Compound 93, (2R,4S,5R,6R)-6-((1R,2R)-3-(2-(4-chlorophenyl)acetamido)-1,2-dihydroxypropyl)-4-hydroxy-5-(2-phenylacetamido)-2-((6-(prop-2-yn-1-yloxy)hexyl)oxy)tetrahydro-2H-pyran-2-carboxylic acid]	> 10 µM	1 to 10 µM	> 10 µM
C#CCOCCOCCO[C@]1(C(=O)O)C[C@H](O)[C@@H](NC(=O)CO)[C@H]([C@H](O)[C@H](O)CNC(=O)C[C@H]2CC[C@@H](O)CC2)O1 [Compound 200, (2R,4S,5R,6R)-6-((1R,2R)-1,2-dihydroxy-3-(2-((1s,4S)-4-hydroxycyclohexyl)acetamido)propyl)-4-hydroxy-5-(2-hydroxyacetamido)-2-(2-(2-(prop-2-yn-1-yloxy)ethoxy)ethoxy)tetrahydro-2H-pyran-2-carboxylic acid]	> 10 µM	> 10 µM	> 10 µM
CC(=O)NCCOCCOCCOCCOCc1cn(CCOCCOCCO[C@]2(C(=O)O)C[C@H](O)[C@@H](NC(=O)CO)[C@H]([C@H](O)[C@H](O)CNC(=O)Cc3ccc(Cl)cc3)O2)nn1 [Cpd. 260, (2R,4S,5R,6R)-6-((1R,2R)-3-(2-(4-chlorophenyl)acetamido)-1,2-dihydroxypropyl)-4-hydroxy-5-(2-hydroxyacetamido)-2-(2-(2-(2-(4-(15-oxo-2,5,8,11-tetraoxa-14-azahexadecyl)-1H-1,2,3-triazol-1-yl)ethoxy)ethoxy)ethoxy)tetrahydro-2H-pyran-2-carboxylic acid]	1 to 10 µM	1 to 10 µM	1 to 10 µM
C#CCOCCOCCO[C@]1(C(=O)O)C[C@H](O)[C@@H](NC(=O)C(C)(C)O)[C@H]([C@H](O)[C@H](O)CNC(=O)Cc2ccc(-c3ccc(O)cc3)cc2)O1 [Compound 71, (2R,4S,5R,6R)-6-((1R,2R)-1,2-dihydroxy-3-(2-(4′-hydroxy-[1,1′-biphenyl]-4-yl)acetamido)propyl)-4-hydroxy-5-(2-hydroxy-2-methylpropanamido)-2-(2-(2-(prop-2-yn-1-yloxy)ethoxy)ethoxy)tetrahydro-2H-pyran-2-carboxylic acid]	1 to 10 µM	1 to 10 µM	> 10 µM
C#CCOCCOCCO[C@]1(C(=O)O)C[C@H](O)[C@@H](NC(=O)CO)[C@H]([C@H](O)[C@H](O)CNC(=O)c2ccccc2O)O1 [Compound 28, (2R,4S,5R,6R)-6-((1R,2R)-1,2-dihydroxy-3-(2-hydroxybenzamido)propyl)-4-hydroxy-5-(2-hydroxyacetamido)-2-(2-(2-(prop-2-yn-1-yloxy)ethoxy)ethoxy)tetrahydro-2H-pyran-2-carboxylic acid]	> 10 µM	> 10 µM	> 10 µM

Continued, values first:

Kd (cynomolgus Siglec-2/CD22)	Kd [1]	Kd [2]	SMILES
1 to 10 µM	> 10 µM	1 to 10 µM	C#CCOCCCCCCO[C@]1(C(=O)O)C[C@H](O)[C@@H](NCC(=O)N(C)C)[C@H]([C@H](O)[C@H](O)CNC(=O)Cc2ccc(Cl)cc2)O1 [Compound 180, (2R,4S,5R,6R)-6-((1R,2R)-3-(2-(4-chlorophenyl)acetamido)-1,2-dihydroxypropyl)-5-((2-(dimethylamino)-2-oxoethyl)amino)-4-hydroxy-2-((6-(prop-2-yn-1-yloxy)hexyl)oxy)tetrahydro-2H-pyran-2-carboxylic acid]
< 1 µM	< 1 µM	< 1 µM	C#CCNc1c(NCCCCCCO[C@]2(C(=O)O)C[C@H](O)[C@@H](NC(=O)CO)[C@H]([C@H](O)[C@H](O)CNC(=O)Cc3ccc(C(F)F)cc3)O2)c(=O)c1=O [Compound 220, (2R,4S,5R,6R)-6-((1R,2R)-3-(2-(4-(difluoromethyl)phenyl)acetamido)-1,2-dihydroxypropyl)-2-((6-((3,4-dioxo-2-(prop-2-yn-1-ylamino)cyclobut-1-en-1-yl)amino)hexyl)oxy)-4-hydroxy-5-(2-hydroxyacetamido)tetrahydro-2H-pyran-2-carboxylic acid]
< 1 µM	1 to 10 µM	> 10 µM	C#CCOCCOCCO[C@]1(C(=O)O)C[C@H](O)[C@@H](NC(=O)CO)[C@H]([C@H](O)[C@H](O)CNC(=O)Cc2ccc(F)c(C(F)(F)F)c2)O1 [Compound 132, (2R,4S,5R,6R)-6-((1R,2R)-3-(2-(4-fluoro-3-(trifluoromethyl)phenyl)acetamido)-1,2-dihydroxypropyl)-4-hydroxy-5-(2-hydroxyacetamido)-2-(2-(2-(prop-2-yn-1-yloxy)ethoxy)ethoxy)tetrahydro-2H-pyran-2-carboxylic acid]
< 1 µM	< 1 µM	1 to 10 µM	C#CCOCCCCCCO[C@]1(C(=O)O)C[C@H](O)[C@@H](NC(=O)CO)[C@H]([C@H](O)[C@H](O)CNC(=O)Cc2ccc(Cl)c(C(F)(F)F)c2)O1 [Compound 127, (2R,4S,5R,6R)-6-((1R,2R)-3-(2-(4-chloro-3-(trifluoromethyl)phenyl)acetamido)-1,2-dihydroxypropyl)-4-hydroxy-5-(2-hydroxyacetamido)-2-((6-(prop-2-yn-1-yloxy)hexyl)oxy)tetrahydro-2H-pyran-2-carboxylic acid]
